Legend:
[1] = test system: Plasmodium falciparum; assay: Antiplasmodial activity against CQ-sensitive Plasmodium falciparum D6; assay type: functional
[2] = test system: Plasmodium falciparum; assay: Antiplasmodial activity against CQ-resistant Plasmodium falciparum Dd2; assay type: functional, organism-based; settings: for IC50: Plasmodium falciparum, Dd2
[3] = test system: Plasmodium falciparum; assay: Antiplasmodial activity against CQ-resistant Plasmodium falciparum 7G8; assay type: functional
[4] = test system: Plasmodium falciparum; assay: Antiplasmodial activity against CQ-resistant Plasmodium falciparum K1; assay type: functional, organism-based
[5] = test system: Plasmodium falciparum; assay: Antiplasmodial activity against CQ-resistant Plasmodium falciparum W2 assessed as inhibition of parasite growth; assay type: functional, organism-based
[6] = test system: Plasmodium falciparum; assay: Antiplasmodial activity against CQ-sensitive Plasmodium falciparum 3D7; assay type: functional, organism-based; settings: for IC50: Plasmodium falciparum, 3D7
[7] = test system: Plasmodium falciparum; assay: Antiplasmodial activity against CQ-resistant Plasmodium falciparum FCR3; assay type: functional, organism-based
[8] = test system: Plasmodium berghei; assay: Antimalarial activity against Plasmodium berghei infected in human HuH7 cells assessed as inhibition of liver cell infection; assay type: functional, organism-based; settings: Huh-7, Liver
[9] = Inhibition of beta-hematin formation; assay type: physicochemical
[10] = test system: Plasmodium falciparum; assay: Antiplasmodial activity against CQ-sensitive Plasmodium falciparum D10; assay type: functional, organism-based

| IC50 [6] [nM] | Compound | IC50 [5] [nM] | other results |
| --- | --- | --- | --- |
| – | Clc1ccc2c(NCCN3CCN(C(c4ccccc4)c4ccccc4)CC3)ccnc2c1 | – | Activity [1]: 0.5 nM; Activity [2]: 1 nM; Activity [3]: 2 nM |
| – | Clc1ccc2c(NCCCN3CCN(C(c4ccccc4)c4ccccc4)CC3)ccnc2c1 | – | Activity [1]: 0.5 nM; Activity [2]: 1 nM; Activity [3]: 2 nM |
| – | Clc1ccc2c(NCCCN3CCN(CC(c4ccccc4)c4ccccc4)CC3)ccnc2c1 | – | Activity [1]: 0.5 nM; Activity [2]: 1 nM; Activity [3]: 2 nM |
| – | Clc1ccc2c(NCCCN3CCN(C4C5CC6CC(C5)CC4C6)CC3)ccnc2c1 (centres undefined) | – | Activity [1]: 0.5 nM; Activity [2]: 1 nM; Activity [3]: 2 nM |
| – | Clc1ccc2c(NCCCCN3CCN(C(c4ccccc4)c4ccccc4)CC3)ccnc2c1 | – | Activity [1]: 0.5 nM; Activity [2]: 1 nM; Activity [3]: 2 nM |
| – | CCCN1CNc2cc(Nc3ccnc4cc(Cl)ccc34)ccc2C1 | 130 | IC50 [4]: 220 nM |
| – | Clc1ccc2c(Nc3ccc4c(c3)NCN(Cc3ccccc3)C4)ccnc2c1 | 130 | IC50 [4]: 220 nM |
| – | CCN1CNc2cc(Nc3ccnc4cc(Cl)ccc34)ccc2C1 | 130 | IC50 [4]: 220 nM |
| < 100 | O=C1/C(=C/c2ccc([N+](=O)[O-])cc2)SC(=S)N1CCCNc1ccnc2cc(Cl)ccc12 | – | – |
| < 100 | O=C1/C(=C/c2ccccc2[N+](=O)[O-])SC(=S)N1CCCNc1ccnc2cc(Cl)ccc12 | – | – |
| < 100 | COc1cc(/C=C2\SC(=S)N(CCNc3ccnc4cc(Cl)ccc34)C2=O)cc(OC)c1OC | – | – |
| < 100 | CN(C)c1ccc(/C=C2\SC(=S)N(CCCCNc3ccnc4cc(Cl)ccc34)C2=O)cc1 | – | – |
| < 100 | COc1cc(/C=C2\SC(=S)N(CCCCNc3ccnc4cc(Cl)ccc34)C2=O)cc(OC)c1OC | – | – |
| < 100 | COc1cc(/C=C2\SC(=S)N(CCCNc3ccnc4cc(Cl)ccc34)C2=O)cc(OC)c1OC | – | – |
| < 1000 | Cc1c(O)c(=O)ccn1CCCCNc1ccnc2cc(Cl)ccc12 | – | – |
| – | O=[N+]([O-])c1ccccc1S(=O)(=O)N1CCN(c2ccnc3cc(Cl)ccc23)CC1 | – | IC50 [7]: 1200 nM |
| 4 | Cc1c(O)c(=O)ccn1CCCCCCNc1ccnc2cc(Cl)ccc12 | – | – |
| < 1000 | CCc1c(O)c(=O)ccn1CCCCCCNc1ccnc2cc(Cl)ccc12 | – | – |
| < 1000 | COc1c(C)n(CCCCCCNc2ccnc3cc(Cl)ccc23)ccc1=O | – | – |
| < 1000 | COc1c(C)n(CCCCNc2ccnc3cc(Cl)ccc23)ccc1=O | – | – |
| < 1000 | CCc1c(OCc2ccccc2)c(=O)ccn1CCCCNc1ccnc2cc(Cl)ccc12 | – | – |
| < 1000 | CCc1c(OCc2ccccc2)c(=O)ccn1CCCCCCNc1ccnc2cc(Cl)ccc12 | – | – |
| < 1000 | CCc1c(O)c(=O)ccn1CCCNc1ccnc2cc(Cl)ccc12 | – | – |

| IC50 [6] [nM] | Compound | IC50 [5] [nM] | other results |
| --- | --- | --- | --- |
| < 1000 | CCc1c(O)c(=O)ccn1CCCCNc1ccnc2cc(Cl)ccc12 | – | – |
| – | O=C(NCCCCNc1ccnc2cc(Cl)ccc12)N[C@H]1C(=O)N(C2CCCCC2)[C@H]1/C=C/c1ccccc1 | 42 | – |
| – | O=C(NCCCCCCNc1ccnc2cc(Cl)ccc12)N[C@H]1C(=O)N(C2CCCCC2)[C@H]1/C=C/c1ccccc1 | 42 | – |
| – | Cc1ccc(N2C(=O)[C@H](NC(=O)NCCCCNc3ccnc4cc(Cl)ccc34)[C@@H]2/C=C/c2ccccc2)cc1 | 42 | – |
| – | O=C(NCCNc1ccnc2cc(Cl)ccc12)C(=O)N[C@@H]1C(=O)N(C2CCCCC2)[C@@H]1/C=C/c1ccccc1 | 34 | – |
| – | O=C(NCCCNc1ccnc2cc(Cl)ccc12)C(=O)N[C@@H]1C(=O)N(C2CCCCC2)[C@@H]1/C=C/c1ccccc1 | 34 | – |
| – | O=C(NCCCCNc1ccnc2cc(Cl)ccc12)C(=O)N[C@@H]1C(=O)N(C2CCCCC2)[C@@H]1/C=C/c1ccccc1 | 34 | – |
| – | O=C(NCCCCCCNc1ccnc2cc(Cl)ccc12)C(=O)N[C@@H]1C(=O)N(C2CCCCC2)[C@@H]1/C=C/c1ccccc1 | 34 | – |
| – | Cc1ccc(N2C(=O)[C@@H](NC(=O)C(=O)NCCNc3ccnc4cc(Cl)ccc34)[C@H]2/C=C/c2ccccc2)cc1 | 34 | – |
| – | Cc1ccc(N2C(=O)[C@@H](NC(=O)C(=O)NCCCNc3ccnc4cc(Cl)ccc34)[C@H]2/C=C/c2ccccc2)cc1 | 34 | – |
| – | COc1cc(NC(C)CCCNC(=O)C2CCC3(CC2)OOC2(OO3)C3CC4CC(C3)CC2C4)c2ncccc2c1 (centres undefined) | – | IC50 [8]: 330 nM |
| – | COc1cc(NC(C)CCCNCC2CCC3(CC2)OOC2(OO3)C3CC4CC(C3)CC2C4)c2ncccc2c1 (centres undefined) | 21 | IC50 [8]: 330 nM |
| – | COc1cc(NC(C)CCCNC(=O)CC2CCC3(CC2)OOC2(OO3)C3CC4CC(C3)CC2C4)c2ncccc2c1 (centres undefined) | 21 | IC50 [8]: 330 nM |
| – | COc1cc(NC(C)CCCNC2CCC3(CC2)OOC2(OO3)C3CC4CC(C3)CC2C4)c2ncccc2c1 (centres undefined) | 21 | – |
| – | O=C(N[C@H](c1ccccc1)[C@H](O)C(=O)NCc1cn(CNc2ccnc3cc(Cl)ccc23)nn1)c1ccccc1 | 280 | IC50 [4]: 390 nM |
| – | Cc1ccc(N2C(=O)[C@@H](NC(=O)C(=O)NCCCCCCNc3ccnc4cc(Cl)ccc34)[C@H]2/C=C/c2ccccc2)cc1 | 34 | – |
| – | O=C(N[C@H](c1ccccc1)[C@H](O)C(=O)OCCCNc1ccnc2cc(Cl)ccc12)c1ccccc1 | 130 | – |
| – | CC(=O)O[C@H](C(=O)OCCCNc1ccnc2cc(Cl)ccc12)[C@H](NC(=O)c1ccccc1)c1ccccc1 | 160 | – |
| – | CN(C)c1ccc(/C=C/C(=O)c2cccc(Nc3ccnc4cc(Cl)ccc34)c2)cc1 | – | inhibition (INH) [9]: 94% |
| – | O=C(/C=C/c1ccc(Cl)cc1)c1cccc(Nc2ccnc3cc(Cl)ccc23)c1 | – | inhibition (INH) [9]: 94% |
| – | O=C(/C=C/c1ccccc1Cl)c1cccc(Nc2ccnc3cc(Cl)ccc23)c1 | – | inhibition (INH) [9]: 94% |
| – | O=C(/C=C/c1cccc(F)c1)c1cccc(Nc2ccnc3cc(Cl)ccc23)c1 | – | inhibition (INH) [9]: 94% |
| – | O=C(/C=C/c1ccccc1)c1cccc(Nc2ccnc3cc(Cl)ccc23)c1 | – | inhibition (INH) [9]: 94% |

| IC50 [6] [nM] | Compound | IC50 [5] [nM] | other results |
| --- | --- | --- | --- |
| – | O=C(N[C@H](c1ccccc1)[C@H](O)C(=O)NCc1cn(CCNc2ccnc3cc(Cl)ccc23)nn1)c1ccccc1 | 280 | IC50 [4]: 390 nM |
| – | O=C(N[C@H](c1ccccc1)[C@H](O)C(=O)NCc1cn(-c2cccc(Nc3ccnc4cc(Cl)ccc34)c2)nn1)c1ccccc1 | 280 | IC50 [4]: 390 nM |
| – | O=C(N[C@H](c1ccccc1)[C@H](O)C(=O)NCc1cn(-c2ccccc2Nc2ccnc3cc(Cl)ccc23)nn1)c1ccccc1 | 280 | IC50 [4]: 390 nM |
| – | C[C@H]1[C@@H](OCCN(CCCNc2ccnc3cc(Cl)ccc23)CCO[C@H]2O[C@@H]3O[C@@]4(C)CC[C@H]5[C@H](C)CC[C@@H]([C@H]2C)[C@@]35OO4)O[C@@H]2O[C@@]3(C)CC[C@H]4[C@H](C)CC[C@@H]1[C@@]24OO3 | – | Activity [6]: 9 nM |
| – | C[C@H]1[C@@H](OCC[N+]2(CCO[C@H]3O[C@@H]4O[C@@]5(C)CC[C@H]6[C@H](C)CC[C@@H]([C@H]3C)[C@@]46OO5)CCN(CCNc3ccnc4cc(Cl)ccc34)CC2)O[C@@H]2O[C@@]3(C)CC[C@H]4[C@H](C)CC[C@@H]1[C@@]24OO3 | – | Activity [6]: 30 nM |
| 12 | C=C[C@H]1CN2CC[C@H]1C[C@H]2[C@H](OC(=O)C(C)NC(=O)c1cn(CC)c2cc3c(cc2c1=O)OCO3)c1ccnc2ccc(OC)cc12 (some centres undefined) | – | – |
| 16 | C=C[C@H]1CN2CC[C@H]1C[C@H]2[C@H](OC(=O)C(C)NC(=O)c1cn(CC)c2ncccc2c1=O)c1ccnc2ccc(OC)cc12 (some centres undefined) | – | – |
| 12 | C=C[C@H]1CN2CC[C@H]1C[C@H]2[C@H](OC(=O)CNC(=O)c1cn2c3c(c(N4CCN(C)CC4)c(F)cc3c1=O)CC[C@H]2C)c1ccnc2ccc(OC)cc12 | – | – |
| 12 | C=C[C@H]1CN2CC[C@H]1C[C@H]2[C@H](OC(=O)CNC(=O)c1cn(C2CC2)c2nc(N3CCN(CC)CC3)c(F)cc2c1=O)c1ccnc2ccc(OC)cc12 | – | – |
| – | Cc1ccc(N2C(=O)[C@@H](NCCNc3ccnc4cc(Cl)ccc34)[C@H]2/C=C/c2ccccc2)cc1 | 80 | – |
| – | Cc1ccc(N2C(=O)[C@H](NC(=O)CCCNc3ccnc4cc(Cl)ccc34)[C@@H]2/C=C/c2ccccc2)cc1 | 80 | – |
| – | Cc1ccc(N2C(=O)[C@H](NC(=O)CCCCCNc3ccnc4cc(Cl)ccc34)[C@@H]2/C=C/c2ccccc2)cc1 | 80 | – |
| – | O=C(NCCNc1cccc2cc(Cl)ccc12)N[C@H]1C(=O)N(C2CCCCC2)[C@H]1/C=C/c1ccccc1 | 42 | – |
| – | O=C(NCCCNc1cccc2cc(Cl)ccc12)N[C@H]1C(=O)N(C2CCCCC2)[C@H]1/C=C/c1ccccc1 | 42 | – |
| – | Cc1ccc(N2C(=O)[C@H](NC(=O)NCCNc3cccc4cc(Cl)ccc34)[C@@H]2/C=C/c2ccccc2)cc1 | 42 | – |
| – | Cc1ccc(N2C(=O)[C@H](NC(=O)NCCCNc3cccc4cc(Cl)ccc34)[C@@H]2/C=C/c2ccccc2)cc1 | 42 | – |
| – | Cc1ccc(N2C(=O)[C@@H](NC(=O)C(=O)NCCCCNc3ccnc4cc(Cl)ccc34)[C@H]2/C=C/c2ccccc2)cc1 | 34 | – |
| – | C[C@H]1[C@@H](OCc2ccc(C(=O)N(CCNc3ccnc4cc(Cl)ccc34)CC(=O)NC(C)(C)C)cc2)O[C@@H]2O[C@@]3(C)CC[C@H]4[C@H](C)CC[C@@H]1[C@@]24OO3 | – | IC50 [10]: 26 nM; IC50 [4]: 19 nM |
| – | C[C@H]1[C@@H](OCc2ccc(C(=O)N(CCNc3ccnc4cc(Cl)ccc34)CC(=O)NC3CCCCC3)cc2)O[C@@H]2O[C@@]3(C)CC[C@H]4[C@H](C)CC[C@@H]1[C@@]24OO3 | – | IC50 [10]: 26 nM; IC50 [4]: 19 nM |
| – | C[C@H]1[C@@H](OCc2cccc(C(=O)N(CCCCNc3ccnc4cc(Cl)ccc34)CC(=O)NC3CCCCC3)c2)O[C@@H]2O[C@@]3(C)CC[C@H]4[C@H](C)CC[C@@H]1[C@@]24OO3 | – | IC50 [10]: 26 nM; IC50 [4]: 19 nM |
| – | COc1cc(NC(C)CCCN)c2ncccc2c1 (centres undefined) [PRIMAQUINE] | – | IC50 [8]: 7500 nM |

| Compound | IC50 [6] [nM] | IC50 [5] [nM] | other results |
| --- | --- | --- | --- |
| O=C(/C=C/c1ccccc1)N[C@@H](CCCCCC(=O)NO)C(=O)Nc1cccc2cccnc12 | 13 | – | IC50 [2]: 33 nM |
| CN(C)c1ccc(C(=O)N[C@@H](CCCCCC(=O)NO)C(=O)Nc2cccc3cccnc23)cc1 | 13 | – | IC50 [2]: 33 nM |
| C=C[C@H]1CN2CC[C@H]1C[C@H]2[C@H](O)c1ccnc2ccc(OC)cc12 [QUININE] | 18 | – | – |
